In article PMC12477777, “Human exposure to green spaces and monoterpenes: discovery and use of α-pinene metabolites as biomarkers” (Environment international, 2025):
Like-named read-outs stand apart in the source and are kept apart here.

Assays:
[1] = Relative quantification of urinary aPM (UPLC-QTOF-MS, creatinine-normalized) after controlled α-pinene inhalation; format: in vivo, human; conditions: for Proportion (observed) after α-pinene inhalation: share of total response of 22 aPM, averaged over post-exposure samples
Procedure: (§1) Briefly, for controlled inhalation experiments, eight healthy volunteers were exposed to α-pinene in a custom-built exposure chamber via inhalation from a 15 ml conical tube, containing approximately 100 μl α-pinene, for a duration of 10 min. Urine samples were collected before exposure (0 h) and 0.5, 1, 2, 3, and 4 h after exposure. […] Urine samples were collected both before (0 h) or 4 h after exposure. After collection, the urine samples were centrifuged and stored at −80 °C before analysis. […] Demographic information, including sex, age and race, can be found in Table S1.
(§2) Briefly, after 1:10 dilution, urine samples were separated using an Acquity I-Class UPLC system with an Acquity Premier CSH C18 UPLC column (Waters, MA) with a gradient comprising 0.1 % formic acid in water as the solvent A and 0.1 % formic acid in acetonitrile as the solvent B. Mass Spectrometry Elevated Energy (MS^E) data were collected using a Waters Synapt XS MS (Waters, MA) with an ESI ion source operated in the negative mode. Subsequent analyses of raw files were performed using UNIFI 1.9 and Progenesis QI 3.0 (both from Waters, MA). To validate LC-MS performance, one quality control (QC) sample, prepared by pooling equal amount of each urine sample, was injected after every ten urine sample injections.
(§3) Relative quantification of aPM was performed based on the peak responses normalized to urinary creatinine levels. Urinary creatinine levels were measured using an Ace Axcel Clinical Chemistry System with ACE Creatinine Reagent from Alfa Wassermann (West Caldwell, NJ). Statistical analyses, including ANOVA and Student’s t-tests, were conducted using SAS 9.4 (SAS Institute, NC) to explore differences in aPM across various time points. […] A threshold for statistical significance was defined as p < 0.05.

[2] = Kinetic modeling of urinary aPM with a pseudo one-compartment nonlinear mixed-effects model after α-pinene inhalation; format: in vivo, human; conditions: for F (%), fraction of metabolite generated from absorbed α-pinene: human urine after 10 min α-pinene inhalation, F normalized to the sum of 22 detected metabolites
Description: In this equation, i represents the participant index, j the urine sample index, C the creatinine-normalized peak response, and t the sample collection time ( h).Ka denotes the first-order generation constant ( h^−1 ), and Ke denotes the first-order elimination rate constant h^−1 . F indicates the fraction of specific aPM relative to absorbed α-pinene. The variables D and V refer to the absorbed α-pinene amount and the distribution volume, respectively. Because input data were derived from relative quantification, absolute values of D , V , and F were not available. For simplicity, D and V were fixed at 100 and 1, respectively, and F was normalized relative to the sum of all detected aPM. The error term ε accounts for residual variation.

[3] = aPM in mouse urine after i.p. injection of (+)-α-pinene or (−)-α-pinene; format: in vivo, mice (C57BL/6); conditions: for R/(R+S): mouse urine, enantiomer specificity
Procedure: Mouse urine was collected after exposures to either (+) or (−) α-pinene to distinguish between metabolites of different enantiomers of α-pinene. Adult male mice (C57BL/6) were intraperitoneally administered with 50 mg/kg body weight of (+)-α-pinene or (−)-α-pinene dissolved in 100 μl sterile saline with 1 % Tween 80.

[4] = Urinary aPM after 4 h greenness (forest) exposure; format: in vivo, human; design: Maximum response: unit not given here
Procedure: as §1, §2, §3

[5] = cited from earlier work
[6] = human urine after α-pinene inhalation
[7] = human urine after α-pinene inhalation, pseudo one-compartment model
[8] = male, C57BL/6, mouse, in vivo, ip, 50 mg/kg
[9] = human urine, greenness exposure
[10] = mouse urine collected overnight, 50 mg/kg i.p. (+)-α-pinene, 50 mg/kg
[11] = mouse urine collected overnight, 50 mg/kg i.p. (−)-α-pinene, 50 mg/kg

Row | Compound | Frequency of occurrence (percentage of samples with analyte detected) [1, 6] | Maximum response (highest peak response across all urine samples) [1, 6] | Proportion (observed) after α-pinene inhalation [1] | F (%), fraction of metabolite generated from absorbed α-pinene [2] | Ka, first-order generation constant [2, 7] | Frequency of occurrence [4, 9] | Observed Tmax [1, 6] | Elimination t1/2 [2, 7] | Ke, first-order elimination rate constant [2, 7] | (1R)-(+)-α-Pinene (Average), proportion of aPM in mouse urine [3, 10] | (1S)-(−)-α-Pinene (Average), proportion of aPM in mouse urine [3, 11] | R/(R+S) [3] | further results
1 | CC1(C)C2CC=C(COC3OC(C(=O)O)C(O)C(O)C3O)C1C2 (centres unmarked) [aPM2c, myrtenol glucuronide] | 95.8% | 154854 | 4.9% | 6.99 ± 2.12% | 3.02 ± 0.88 h⁻¹ | 31.3% |  |  |  |  |  |  | Tmax ([1]; inhaled or intranasal, human urine after α-pinene inhalation, read-out: Observed Tmax): 30 min; half-life ([2]; inhaled or intranasal, human urine after α-pinene inhalation, pseudo one-compartment model, read-out: Elimination t1/2 (converted)): 30 ± 5.4 min; k el ([2]; inhaled or intranasal, human urine after α-pinene inhalation, pseudo one-compartment model, read-out: Ke, first-order elimination rate constant (converted)): 0.000386 s⁻¹; (1R)-(+)-α-Pinene (Average), proportion of aPM in mouse urine [3, 8]: 21.8%; (1S)-(−)-α-Pinene (Average), proportion of aPM in mouse urine [3, 8]: 30.3%; Maximum response [4, 9]: 1435; Proportion (observed) after greenness exposure ([4]; share of total aPM response): 0.5%
2 | C=C(C)[C@H]1CC=C(C)CC1 [limonene] |  |  |  |  |  |  |  |  |  |  |  |  | Blood half-life (t1/2α) ([5]; limonene in blood, ref Falk-Filipsson et al., 1993): ~ 3 min
3 | CC1=CCC2CC1C2(C)C (stereo not drawn) [α-pinene, α-Pinene] |  |  |  |  |  |  |  |  |  |  |  |  | Blood half-life (t1/2α) ([5]; α-pinene in blood, ref Falk et al., 1990): ~ 5 min
4 | Myrtenic acid-4-O-7-O-GlcA [aPM8] | 83.3% | 13644 | 0.8% | 0.65 ± 0.31% | 0.73 ± 0.33 h⁻¹ | 0.0% | 60 min | 58.2 ± 25.2 min | 0.71 ± 0.31 h⁻¹ |  |  |  | (1R)-(+)-α-Pinene (Average), proportion of aPM in mouse urine ([3]; mouse urine collected overnight, 50 mg/kg i.p. (+)-α-pinene): 0.0%; (1S)-(−)-α-Pinene (Average), proportion of aPM in mouse urine ([3]; mouse urine collected overnight, 50 mg/kg i.p. (−)-α-pinene): 0.0%
5 | Pinanetriol-GlcA [aPM7a] | 89.6% | 20611 | 1.3% | 1.56 ± 0.66% | 1.46 ± 0.48 h⁻¹ | 0.0% | 60 min | 44.4 ± 13.2 min | 0.93 ± 0.27 h⁻¹ | 21.2% | 3.8% | 84.7% | 
6 | Pinanetriol-GlcA [aPM7b] | 83.3% | 8663 | 0.2% | 0.28 ± 0.09% | 2.69 ± 0.73 h⁻¹ | 0.0% | 30 min | 36.6 ± 7.2 min | 1.15 ± 0.22 h⁻¹ | 3.7% | 0.0% | 100% | 
